Assay results taken from patent US8961986B2, “Peptide composition” (Apitope Technology (Bristol) Limited, priority 2000, dated 2015).
“Also recorded” adds a separate entry of the source.

Key:
[1] = tested on: fixed Mgar (HLA-DR2+ve) APC presenting to T cells from DR2:MBP 82-100 transgenic mouse; assay: Antigen-presentation assay using an APIPS (fixed APC) with T cells from DR2:MBP82-100 transgenic mouse; type: cell-based; conditions: live or p-formaldehyde-fixed Mgar cells, 72 h
Method: Presentation of peptides to T cells isolated from DR2:MBP82-100 transgenic mouse was essentially as described above except APC were plated at 5×10^5 cells per well, T cells were plated at 1×10^5 cells per well, and incubation was allowed to proceed for 72 h prior to the addition of [^3H]-thymidine.
(§1) For any given epitope, there may exist one or more apitopes, capable of being presented to APC without further processing. The presence of apitopes within two regions of MBP is investigated by incubating live or p-formaldehyde-fixed Mgar (HLA-DR2+ve) cells are incubated with overlapping peptides in serum from MBP regions 77-100 (FIG. 12) and 125-148 (FIG. 13) or in serum alone. T cells were added and after 72 h (FIG. 12) or after 48 h (FIG. 13) the T cell proliferative response was measured by ^3H-thymidine uptake. For MBP 77-100, the T cells are isolated from a DR2:MBP 82-100 transgenic mouse, whereas for MBP 130-144 the T cell clone MS17:A3 is used.

[2] = tested on: fixed Mgar (HLA-DR2+ve) APC presenting to T cell clones; assay: Antigen-presentation assay using an APIPS (fixed APC) with human T cell clones; type: cell-based; conditions: for apitope within MBP region 125-148: live or p-formaldehyde-fixed Mgar cells, T cell clone MS17:A3, 48 h; for presentation by fixed APC without further processing (apitope): fixed vs live APC, T cell clone proliferation
Method: Presentation of the peptides to T cell clones is measured by proliferation. APC are fixed in 0.5% paraformaldehyde and plated at 1×10^5 cells per well of a 96-well tissue culture plate. T cells clones are plated at 2×10^4 cells per well in the presence of varying concentrations of peptide. After incubation for 48 h at 37° C., proliferation is measured by [^3H] thymidine incorporation over 16-20 h. Results are compared with the ability of T cells to respond to the epitope presented by live APC.
In order to investigate whether various MBP peptides are apitopes, their capacity to be presented to T-cells by fixed APC is investigated. Live or […] Mgar (HLA-DR2+ve) cells are pre-pulsed with the peptide in serum, or serum alone for 3.5 hours. Excess peptide is then removed from cells and the appropriate T cell clone added. The T cell proliferative response is measured by ^3H-thymidine uptake.
as §1

[3] = tested on: HLA-DQ6; assay: Antigen presentation assay, HLA-DQ6 transfected L-cells; type: cell-based, human
Text: MBP peptides 30-44, 130-144 and 139-153 were synthesized using L-amino acids and standard F-moc chemistry on an Abimed AMS 422 multiple peptide synthesiser.
L-cells transfected with either HLA-DQ6, HLA-DR2a or HLA-DR2b, or Mgar cells (EACC, Porton Down, UK) which express HLA-DQ, DP and DR were used as APCs.
T-cell clones MS 49:D3 and MS17:A2 were generated from MS patients and clone N5:19 was generated from a normal individual. All three clones were DR2 positive.
Antigen presenting cells were incubated with the various concentrations of peptide and the appropriate T-cells. Proliferation, and therefore activation, of the T-cells was measured by [^3H]-Thymidine incorporation, and expressed as the stimulation index (SI=corrected counts per minute (ccpm) culture containing peptide/ccpm culture without peptide).

[4] = tested on: MBP-specific T cell clones; assay: T cell clone (TCC) proliferation assay, fine mapping of MBP epitopes; type: cell-based, human; conditions: TCC from MS patients and healthy individuals; proliferative response
Method: MBP-specific T cell lines (TCL) are generated from 8 MS patients and 2 healthy control donors. PBMC from each subject are separated as described above and plated out at 1×10^6 cells/ml in 6-well plates in the presence of MBP (50 μg/ml); a portion of PBMC from each subject is regularly frozen and stored for subsequent restimulations. Seven days later the cells are fed with fresh medium containing 2% IL-2 (Lymphocult-HT; Biotest LTD., Birmingham, UK), and on day 12 of culture all cells are restimulated with antigen, IL-2 and irradiated (2500 Rad) autologous PBMC as a source of antigen presenting cells (APC), at a cell ratio of 1T cell:5 APC. Cells are expanded in IL-2 every 3-4 days, and on day 14 are restimulated with antigen, IL-2 and PBMC, as described above. On the day of the first restimulation cells are examined for specific proliferation to MBP. Briefly, 2×10^4 T cells and 1×10^5 irradiated autologous PBMC are cultured in triplicate, in 96-well round-bottom plates, in the presence of MBP. Cells are cultured for 2 days and pulsed with (^3H)-Thymidine at 0.4 μCi/well during the last 18 hours of the culture. Cells are then harvested as described above, and a TCL is considered to be MBP-specific with a δcpm>1000 and a SI>3.
Following 3 restimulation/expansion cycles TCL are cloned using PHA (Sigma, Poole, Dorset, UK)) in the presence of autologous irradiated PBMC as APC. T cells are plated under limiting dilution conditions at 0.1 cell/well, 0.3 cell/well and 1 cell/well and cultured in Terasaki plates (Nunc International, Costar) with 1×10^4 irradiated PBMC, 5 μg/ml PHA, and 2% IL-2. After 10-12 days, growth-positive wells are expanded onto 96-well round-bottom plates, using 1×10^5 irradiated PBMC, 5 μg/ml PHA and IL-2. Three days later wells are fed with fresh medium containing IL-2, and on day 7 the clones are expanded onto 48-well plates using 5×10^5 irradiated PBMC, PHA and IL-2; at this point clones are tested in proliferation assays for specific responses to MBP. MBP-specific clones are expanded a week later onto 24-well plates, using 1×10^6 irradiated PBMC with PHA or Dynabeads (Dynal, UK) and IL-2. The clones are maintained in 24-well plates using a 7-10 day restimulation/expansion cycle, essentially as described above. The ability of T cell clones (TCC) to recognize the panel of MBP peptides is tested by proliferation assays, as described above.
TCC are generated from 8 MS patients and 2 healthy individuals, and used to clarify the fine specificity of the peptide regions identified in the kinetic response assay. The specificity of each TCC is tested by its proliferative response to the panel of 15-mer peptides. Clone SD:A7 recognised region 1-24, and within this region this TCC responded to a.a. 5-19. Region 30-54 is recognised by 4 clones (MS49:D3, MS49:C8, MS49:A8, MS49:B6) and the epitope within this region is 30-44. […] Five clones (MS43:A7, MS41:B6, MS41:A2, MS41:C6, N5:8) recognize a.a. 83-99 which is contained in region 75-99. One patient produced TCC specific for a.a. 110-124 (MS60:A2, MS60:B3), contained within the 105-129 pool, and another TCC from the same patient is specific to 130-144 (MS60:E1), found within the 120-144 region. Five individuals produce clones which recognize epitopes within the region 135-159: MS60:F7, MS60:D1, MS59:F1 and N5:19 recognizes a.a. 140-154; MS57:A1 is specific to 140-149, and TCC MS17:A3 responds to sequence 130-144. […] Lastly, region 150-170 is recognized by 2 clones specific to a.a. 156-169.

[5] = tested on: draining lymph node cells; assay: Tolerance experiments with 89-101 and 87-96: lymph node cell recall proliferation; type: in vivo, Mice
Method: In order to test this possibility tolerance experiments are performed with the 89-101 and 87-96 peptides (FIGS. 15a and b).
Mice received 200 μg of peptide in PBS or PBS alone intraperitoneally on days −8, −6 and −4 prior to 100 μg of peptide in complete Freunds adjuvant on day 0. After 10 days, draining lymph node cells (6×10^5 per well) were cultured in X-Vivo 15 medium supplemented with 5×10^−5M 2-mercaptoethanol and […] L-glutamine with or without antigen for 72 hours. Cultures were pulsed for the final 16 hours with 0.5 μCi ^3H.thymidine and incorporation measured using a liquid scintillation counter. Results are expressed as means counts per minute for triplicate cultures.

[6] = tested on: MHC class I or II molecule; conditions: cited from earlier work

Question: With DENPVVHFFKNIVTP [MBP 82-96] as the substance, how does the “apitope within MBP region 77-100” value [1] read?
Answer: shown to act as apitopes

Question: Which “apitope within MBP region 125-148” value [2] does the source give for DYKSAHKGFKGVDAQ [MBP 133-147] here?
Answer: shown to act as apitopes

Question: Which “apitope within MBP region 77-100” value [1] does the source give for ENPVVHFFKNIVTPR [MBP 83-97] here?
Answer: shown to act as apitopes

Question: With “H-Ala-Ser-Asp-Tyr-Lys-Ser-Ala-His-Lys-Gly-Phe-Lys-Gly-Val-Asp-NH2 (H-ASDYKSAHKGFKGVD-NH2) [MBP 131-145]” as the substance, how does the HLA-DQ6 binding [3] read?
Answer: HLA-DQ6 binding

Question: And the “apitope within MBP region 125-148” value [2]?
Answer: shown to act as apitopes

Question: Which “T cell clones (TCC) recognising the peptide” value (shortened to “T cell clones”) [4] does the source give for “MBP 5-19: MBP 15-mer peptide a.a. 5-19 (AGKRELNAEKASTNS; UniProt P02686 5-19, looked up, fragment)” here?
Answer: responded

Question: Which “T cell clones” value [4] does the source give for “MBP 60-74: MBP 15-mer peptide 60-74 (QDTAVTDSKRTADPK; UniProt P02686 60-74, looked up, fragment)” here?
Answer: One

Question: Which “effect of peptide as tolerogen on recall responses after priming with 87-96” value ([5]; 200 μg i.p. days -8, -6, -4, priming 87-96 in CFA day 0, lymph node cells day 10) does the source give for “MBP 87-96: MBP 10-mer peptide 87-96, contains the epitope 89-94 (SRPHLIRLFS; UniProt P02686 87-96, looked up, fragment)” here?
Answer: suppressed recall responses to both 87-96 and 89-101

Question: And the “in vitro recall response after priming with 87-96” value ([5]; PBS pre-treated mice, lymph node cells)?
Answer: strong recall response

Question: With “MBP 110-124: myelin basic protein peptide, residues 110-124 (RPSESDELQTIQEDS)” as the substance, how does the “presentation by fixed APC without further processing (apitope)” value [2] read?
Answer: shown to act as apitopes; also recorded: found to be apitopes; also recorded: can be presented by fixed APC without further processing

Question: What about the “T cell clones” value [4] of the same substance?
Answer: TCC specific

Question: With “MBP 134-148: MBP peptide identified as apitope in WO 03/064464 (MASQKRPSQRHGSKY; UniProt P02686 134-148, looked up, fragment)” as the substance, how does the “identified as apitope in WO 03/064464” value [6] read?
Answer: apitopes

Question: With “MBP 135-149: MBP peptide identified as apitope in WO 03/064464 (ASQKRPSQRHGSKYL; UniProt P02686 135-149, looked up, fragment)” as the substance, how does the “identified as apitope in WO 03/064464” value [6] read?
Answer: apitopes

Question: Which “identified as apitope in WO 03/064464” value [6] does the source give for “MBP 136-150: MBP peptide identified as apitope in WO 03/064464 (SQKRPSQRHGSKYLA; UniProt P02686 136-150, looked up, fragment)” here?
Answer: apitopes

Question: With “MBP 137-151: MBP peptide identified as apitope in WO 03/064464 (QKRPSQRHGSKYLAT; UniProt P02686 137-151, looked up, fragment)” as the substance, how does the “identified as apitope in WO 03/064464” value [6] read?
Answer: apitopes

Question: Which “identified as apitope in WO 03/064464” value [6] does the source give for “MBP 138-152: MBP peptide identified as apitope in WO 03/064464 (KRPSQRHGSKYLATA; UniProt P02686 138-152, looked up, fragment)” here?
Answer: apitopes

Question: Which “T cell clones” value [4] does the source give for “MBP 140-149: MBP 10-mer peptide 140-149 (PSQRHGSKYL; UniProt P02686 140-149, looked up, fragment)” here?
Answer: specific

Question: For “MBP 156-169: MBP a.a. 156-169 recognised by 2 clones; possibly the same as 156-170 (DHARHGFLPRHRDT; UniProt P02686 156-169, looked up, fragment)”, which “T cell clones” value [4] is on record?
Answer: 2

Question: Which “presentation by fixed APC without further processing (apitope)” value [2] does the source give for “MBP 156-170: myelin basic protein peptide, residues 156-170; epitope but not apitope (DHARHGFLPRHRDTG)” here?
Answer: an epitope but not an apitope; also recorded: requires further processing for presentation to T cells

Question: With MPVVHFFKNIVTPRT [MBP 84-98] as the substance, how does the “apitope within MBP region 77-100” value [1] read?
Answer: shown to act as apitopes

Question: Which “apitope within MBP region 77-100” value [1] does the source give for QDENPVVHFFKNIVT [MBP 81-95] here?
Answer: shown to act as apitopes

Question: With RASDYKSAHKGFKGV [MBP 130-144] as the substance, how does the “presentation by fixed APC without further processing (apitope)” value [2] read?
Answer: shown to act as apitopes; also recorded: found to be apitopes; also recorded: can be presented by fixed APC without further processing

Question: What about the “T cell clones” value [4] of the same substance?
Answer: responds

Question: For SDYKSAHKGFKGVDA [MBP 132-146], which “apitope within MBP region 125-148” value [2] is on record?
Answer: shown to act as apitopes

Question: What does the source list for TQDENPVVHFFKNIV [MBP 80-94]?
Answer: apitope within MBP region 77-100 [1]: shown to act as apitopes; presentation by fixed APC without further processing (apitope) [2]: found to be apitopes
